{"source": "ChEMBL document CHEMBL1154885", "about": "“Heat shock protein 90: inhibitors in clinical trials” (J Med Chem, 2010)", "key": {"[1]": {"test": "Cmax in liver of mouse bearing human A2780 cells at 80 mg/kg, ip administered as DMSO/egg phospholipid formulation", "type": "ADME, organism-based", "parameters": "dose 80 mg/kg, route intraperitoneal"}, "[2]": {"test": "Cmax in plasma of mouse bearing human A2780 cells at 80 mg/kg, ip administered as DMSO/egg phospholipid formulation", "type": "ADME, organism-based", "parameters": "dose 80 mg/kg, route intraperitoneal"}, "[3]": {"test": "Half life in human at 220 mg/m2 administered as DMSO/egg phospholipid formulation", "type": "ADME, organism-based", "details": "in vivo"}, "Liver [4]": {"tested_on": "Liver", "test": "Apparent volume of distribution in liver of mouse bearing human A2780 cells at 80 mg/kg, ip administered as DMSO/egg phospholipid formulation", "type": "ADME, organism-based", "parameters": "dose 80 mg/kg, route intraperitoneal", "details": "in vivo"}, "[5]": {"test": "AUC in liver of mouse bearing human A2780 cells at 80 mg/kg, ip administered as DMSO/egg phospholipid formulation", "type": "ADME, organism-based", "parameters": "dose 80 mg/kg, route intraperitoneal"}, "[6]": {"test": "Cmax in tumor of mouse bearing human A2780 cells at 80 mg/kg, ip administered as DMSO/egg phospholipid formulation", "type": "ADME, organism-based, Neoplasm", "parameters": "dose 80 mg/kg, route intraperitoneal", "details": "read-out: Cmax_tumor"}, "[7]": {"test": "Half life in liver of mouse bearing human A2780 cells at 80 mg/kg, ip administered as DMSO/egg phospholipid formulation", "type": "ADME, organism-based", "parameters": "dose 80 mg/kg, route intraperitoneal"}, "[8]": {"target": "T1, Heat shock protein HSP 90-beta (Homo sapiens, UniProt P08238)", "T1 sequence (P08238 whole entry)": "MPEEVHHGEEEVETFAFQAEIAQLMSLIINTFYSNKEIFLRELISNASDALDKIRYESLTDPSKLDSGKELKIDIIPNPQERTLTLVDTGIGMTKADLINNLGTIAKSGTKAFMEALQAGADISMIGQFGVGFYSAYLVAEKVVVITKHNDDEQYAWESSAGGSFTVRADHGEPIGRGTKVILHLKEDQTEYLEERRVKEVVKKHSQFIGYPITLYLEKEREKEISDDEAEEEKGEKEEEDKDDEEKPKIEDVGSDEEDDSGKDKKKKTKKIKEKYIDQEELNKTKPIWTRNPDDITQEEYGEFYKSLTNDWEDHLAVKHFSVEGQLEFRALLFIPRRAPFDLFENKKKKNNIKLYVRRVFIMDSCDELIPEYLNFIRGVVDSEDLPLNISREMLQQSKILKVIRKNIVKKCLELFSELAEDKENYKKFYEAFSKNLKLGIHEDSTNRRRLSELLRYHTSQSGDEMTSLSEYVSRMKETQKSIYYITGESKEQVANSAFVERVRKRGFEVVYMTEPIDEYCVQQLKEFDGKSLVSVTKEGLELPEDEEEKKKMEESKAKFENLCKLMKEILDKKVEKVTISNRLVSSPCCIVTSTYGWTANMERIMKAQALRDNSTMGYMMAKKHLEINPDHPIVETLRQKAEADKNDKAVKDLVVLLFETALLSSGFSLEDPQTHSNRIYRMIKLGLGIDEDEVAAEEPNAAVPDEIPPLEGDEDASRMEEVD", "description": "(§1) Inhibition of HSP90-mediated client protein HER2 degradation"}, "[9]": {"test": "AUC in human at 220 mg/m2 administered as DMSO/egg phospholipid formulation", "type": "ADME, organism-based", "details": "plasma"}, "[10]": {"test": "Volume of distribution at steady state in human at 220 mg/m2 administered as DMSO/egg phospholipid formulation", "type": "ADME, organism-based", "details": "in vivo, read-out: Vdss"}, "[11]": {"test": "Apparent volume of distribution in tumor of mouse bearing human A2780 cells at 80 mg/kg, ip administered as DMSO/egg phospholipid formulation", "type": "ADME, organism-based, Neoplasm", "parameters": "dose 80 mg/kg, route intraperitoneal", "details": "in vivo"}, "[12]": {"test": "Cmax in human at 220 mg/m2 administered as DMSO/egg phospholipid formulation", "type": "ADME, organism-based", "details": "in vivo"}, "[13]": {"target": "T1, Heat shock protein HSP 90-beta", "remark": "listed apart in the source", "description": "Binding affinity to HSP90 under non-reducing conditions in absence of TECP"}, "[14]": {"test": "Clearance in tumor of mouse bearing human A2780 cells at 80 mg/kg, ip administered as DMSO/egg phospholipid formulation", "type": "ADME, organism-based, Neoplasm", "parameters": "dose 80 mg/kg, route intraperitoneal", "details": "in vivo"}, "[15]": {"test": "AUC in plasma of mouse bearing human A2780 cells at 80 mg/kg, ip administered as DMSO/egg phospholipid formulation", "type": "ADME, organism-based", "parameters": "dose 80 mg/kg, route intraperitoneal"}, "[16]": {"test": "Clearance in plasma of mouse bearing human A2780 cells at 80 mg/kg, ip administered as DMSO/egg phospholipid formulation", "type": "ADME, organism-based", "parameters": "dose 80 mg/kg, route intraperitoneal"}, "Plasma": {"tested_on": "Plasma", "test": "Apparent volume of distribution in plasma of mouse bearing human A2780 cells at 80 mg/kg, ip administered as DMSO/egg phospholipid formulation", "type": "ADME, organism-based", "parameters": "dose 80 mg/kg, route intraperitoneal", "details": "in vivo"}, "[17]": {"test": "AUC in tumor of mouse bearing human A2780 cells at 80 mg/kg, ip administered as DMSO/egg phospholipid formulation", "type": "ADME, organism-based, Neoplasm", "parameters": "dose 80 mg/kg, route intraperitoneal"}, "Liver [18]": {"tested_on": "Liver", "test": "Clearance in liver of mouse bearing human A2780 cells at 80 mg/kg, ip administered as DMSO/egg phospholipid formulation", "type": "ADME, organism-based", "parameters": "dose 80 mg/kg, route intraperitoneal", "details": "in vivo"}, "[19]": {"test": "Tmax in human at 220 mg/m2 administered as DMSO/egg phospholipid formulation", "type": "ADME, organism-based", "details": "in vivo"}, "[20]": {"test": "Half life in plasma of mouse bearing human A2780 cells at 80 mg/kg, ip administered as DMSO/egg phospholipid formulation", "type": "ADME, organism-based", "parameters": "dose 80 mg/kg, route intraperitoneal"}, "[21]": {"test": "Half life in tumor of mouse bearing human A2780 cells at 80 mg/kg, ip administered as DMSO/egg phospholipid formulation", "type": "ADME, organism-based, Neoplasm", "parameters": "dose 80 mg/kg, route intraperitoneal"}, "[22]": {"target": "T1, Heat shock protein HSP 90-beta", "remark": "listed apart in the source", "description": "Inhibition of HSP90-mediated client protein HER2 degradation in human MCF7 cells"}, "[23]": {"target": "T1, Heat shock protein HSP 90-beta", "remark": "listed apart in the source", "description": "Binding affinity to HSP90 under reducing conditions in presence of TECP"}, "[24]": {"target": "T1, Heat shock protein HSP 90-beta", "remark": "listed apart in the source", "description": "as §1"}}, "data": [{"compound": "CO[C@H]1/C=C\\C=C(/C)C(=O)NC2=CC(=O)C(N)=C(C[C@@H](C)C[C@H](OC)[C@H](O)[C@@H](C)/C=C(\\C)[C@@H]1OC(N)=O)C2=O", "values": [{"measurement": "Cmax", "setting": "[1]", "value": 18, "unit": "µM"}, {"measurement": "Cmax", "setting": "[2]", "value": 4.8, "unit": "µM"}, {"measurement": "half-life", "setting": "[3]", "value": 6.9, "unit": "h"}, {"measurement": "Vz", "setting": "Liver [4]", "value": 0.06, "unit": "L"}, {"measurement": "AUC", "setting": "[5]", "value": 59, "unit": "µM·h"}, {"measurement": "Cmax", "setting": "[6]", "value": 3.5, "unit": "µM"}, {"measurement": "half-life", "setting": "[7]", "value": 1.8, "unit": "h"}, {"measurement": "IC50", "setting": "[8]", "value": 7, "unit": "nM"}, {"measurement": "AUC", "setting": "[9]", "value": 21, "unit": "µM·h"}, {"measurement": "Vd", "setting": "[10]", "value": 230, "unit": "L"}, {"measurement": "Vz", "setting": "[11]", "value": 0.49, "unit": "L"}, {"measurement": "Cmax", "setting": "[12]", "value": 3, "unit": "µM"}, {"measurement": "Ki", "setting": "[13]", "value": 21, "unit": "nM"}, {"measurement": "CL", "setting": "[14]", "value": 0.03, "unit": "L/h"}, {"measurement": "AUC", "setting": "[15]", "value": 15, "unit": "µM·h"}, {"measurement": "CL/F", "setting": "[16]", "value": 1.83, "unit": "mL/min"}, {"measurement": "Vz", "setting": "Plasma", "value": 0.18, "unit": "L"}, {"measurement": "AUC", "setting": "[17]", "value": 43, "unit": "µM·h"}, {"measurement": "CL", "setting": "Liver [18]", "value": 0.02, "unit": "L/h"}, {"measurement": "Tmax", "setting": "[19]", "value": 1.7, "unit": "h"}, {"measurement": "half-life", "setting": "[20]", "value": 1.2, "unit": "h"}, {"measurement": "half-life", "setting": "[21]", "value": 13.7, "unit": "h"}, {"measurement": "IC50", "setting": "[22]", "value": 12, "unit": "nM"}, {"measurement": "Ki", "setting": "[23]", "value": 3, "unit": "nM"}]}, {"compound": "CCCCn1c(Cc2ccc(OC)c(OC)c2OC)nc2c(N)ncnc21", "values": [{"measurement": "Activity", "setting": "[24]", "value": 40, "unit": "µM"}]}]}
